Structures are written as SMILES.

This is an account of results in ChEMBL document CHEMBL1268900, “Discovery of 2-aminoimidazopyridine adenosine A(2A) receptor antagonists” (Bioorg Med Chem Lett, 2010).

Series [1] can be described thus: Selectivity for human adenosine A2A receptor over adenosine A1 receptor.
The target of series [2] is Adenosine receptor A2a (Homo sapiens, UniProt P29274). Nature of the series: Displacement of [3H]SCH58261 from human recombinant A2A receptor expressed in HEK293 cells. In kind it is cell-based. In general terms: Displacement assays read how much labelled ligand stays bound in the presence of the test substance.
The nature of series [3]: Metabolic stability in rat liver microsomes assessed as compound remaining after 30 mins. The note with it: read-out: Stability. It is filed as ADME, Microsome. (In general: Liver microsomes are a subcellular fraction often used to study metabolism.)
For series [4], the target named is Adenosine receptor A2a (Rattus norvegicus, UniProt P30543). Put plainly: Antagonist activity at rat A2A receptor by cAMP functional assay.
Series [5] is described as follows: Metabolic stability in human liver microsomes assessed as compound remaining after 30 mins. It is filed as ADME, Microsome. Conditions: read-out: Stability.
A short description of series [6]: Ratio of drug level in brain to plasma of rat at 30 mg/kg, po after 4 hrs. It is filed as ADME, organism-based. The arrangement: dose 30 mg/kg, route oral. The note with it: read-out: BPR.
The nature of series [7]: Plasma concentration in rat at 30 mg/kg, po after 1 hr. It is filed as ADME, organism-based. Further details: dose 30 mg/kg, route oral.
Series [8] is described as follows: Plasma concentration in rat at 30 mg/kg, po after 4 hrs. Further details: dose 30 mg/kg, route oral. In kind it is ADME, organism-based.
Series [9] in a line: Drug level in rat brain at 30 mg/kg, po after 4 hrs. It is filed as ADME, organism-based. The arrangement: dose 30 mg/kg, route oral. The note with it: read-out: Drug uptake.
Series [10] in a line: Ratio of drug level in brain to plasma of rat at 30 mg/kg, po after 1 hr. In kind it is ADME, organism-based. The arrangement: dose 30 mg/kg, route oral. The note with it: read-out: BPR.
Series [11] is described as follows: Drug level in rat brain at 30 mg/kg, po after 1 hr. It is filed as ADME, organism-based. The arrangement: dose 30 mg/kg, route oral. The note with it: read-out: Drug uptake.

Sequence of Adenosine receptor A2a (Homo sapiens, UniProt P29274) (P29274 whole entry): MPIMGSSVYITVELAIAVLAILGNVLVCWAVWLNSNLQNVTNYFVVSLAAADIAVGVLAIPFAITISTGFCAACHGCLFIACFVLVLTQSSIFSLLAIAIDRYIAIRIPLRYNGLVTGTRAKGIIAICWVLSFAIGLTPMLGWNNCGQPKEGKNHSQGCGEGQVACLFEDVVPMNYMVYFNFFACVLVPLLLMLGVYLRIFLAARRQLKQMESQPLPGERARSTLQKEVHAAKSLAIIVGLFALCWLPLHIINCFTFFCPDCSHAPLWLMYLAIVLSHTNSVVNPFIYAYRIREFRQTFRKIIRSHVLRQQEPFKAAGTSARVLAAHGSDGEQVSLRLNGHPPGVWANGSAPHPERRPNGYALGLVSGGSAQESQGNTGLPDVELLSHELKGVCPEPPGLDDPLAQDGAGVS
Sequence of Adenosine receptor A2a (Rattus norvegicus, UniProt P30543) (P30543 whole entry): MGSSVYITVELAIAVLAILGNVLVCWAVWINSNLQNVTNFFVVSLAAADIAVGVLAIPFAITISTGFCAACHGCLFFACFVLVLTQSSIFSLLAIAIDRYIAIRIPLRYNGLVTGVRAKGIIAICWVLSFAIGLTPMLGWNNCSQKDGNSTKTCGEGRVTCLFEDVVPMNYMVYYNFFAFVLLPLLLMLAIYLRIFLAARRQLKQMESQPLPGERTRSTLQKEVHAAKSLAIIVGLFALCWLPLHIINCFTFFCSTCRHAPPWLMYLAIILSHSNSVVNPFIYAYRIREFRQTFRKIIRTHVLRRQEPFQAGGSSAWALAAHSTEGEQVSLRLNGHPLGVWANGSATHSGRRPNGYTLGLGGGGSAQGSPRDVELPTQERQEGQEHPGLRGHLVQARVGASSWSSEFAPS

The Ki is the equilibrium dissociation constant of an inhibitor or competing ligand from its target. As for `CCOCCn1c(NC(=O)c2cccc(C#N)c2)nc2cc(C(=O)N3CCOCC3)cnc21`, the Ratio in [1] amounted to 1.8. Also, the inhibition constant Ki on Adenosine receptor A2a [2] was found to be 3.3 µM.
Turning to `COCCCn1c(NC(=O)c2cccc(C(F)(F)F)c2)nc2cc(C(=O)NCc3cccc(OC)c3)ccc21`, the inhibitory constant (Ki) on Adenosine receptor A2a [2] was over 10 µM.
On the same count and under the same terms, for `COCCCn1c(NC(=O)c2ccc(C#N)cc2)nc2cc(C(=O)NCc3cccc(OC)c3)ccc21` the value was 1.67 µM.
Take `CCCCCn1c(NC(=O)c2cccc(C#N)c2)nc2cc(C(=O)N3CCCCC3)cnc21`: the Ratio in series [1] was found to be 3. For the same compound, the inhibitory constant (Ki) at Adenosine receptor A2a [2] was 0.904 µM.
In the case of `COCCCn1c(NC(=O)c2cccc(C#N)c2)nc2cc(C(=O)NCc3cccc(OC)c3)ccc21`, at Adenosine receptor A2a [2], the Ki was 0.046 µM.
Turning to `COCCCn1c(NC(=O)c2cccc(OC)c2)nc2cc(C(=O)NCc3cccc(OC)c3)ccc21`, the Ki at Adenosine receptor A2a [2] stood at 2.38 µM.
On the same count and under the same terms, then `COCCCn1c(N)nc2cc(C(=O)NCc3cccc(OC)c3)ccc21`, with 6.77 µM.
With `COCCCn1c(NC(=O)c2cccc(C#N)c2)nc2ccc(C(=O)N(C)C(C)C)nc21`, the remaining at 0.5 h in series [3] stood at 14%; in series [5], 25%. The Ratio in [1] was 88. In addition, the figures for the Ki at Adenosine receptor A2a [4] and at Adenosine receptor A2a [2] were 0.0043 µM and 0.0025 µM, respectively.
With `COc1ccc(Cn2c(NC(=O)c3cccc(C#N)c3)nc3cc(C(=O)N4CCCCC4)cnc32)cc1`, the Ratio in [1] worked out at 7. Moreover, the Ki on Adenosine receptor A2a [2] came to 1.22 µM.
In the case of `COCCCn1c(NC(=O)c2cccc(C#N)c2)nc2cc(C(=O)N(C)C)cnc21`, at Adenosine receptor A2a [2], the Ki came to 0.123 µM.
Turning to `COCCCn1c(NC(=O)c2cccc(C#N)c2)nc2cc(C(=O)N3CCCCC3)ccc21`, the remaining at 0.5 h in series [3] came to 16%; in series [5], 67%. In addition, the inhibitory constant (Ki) at Adenosine receptor A2a [2] came to 0.048 µM.
Take `CCN(CC)C(=O)c1cnc2c(c1)nc(NC(=O)c1cccc(C#N)c1)n2CCCOC`: the Ki on Adenosine receptor A2a [4] came to 0.059 µM; on Adenosine receptor A2a [2] it was 0.016 µM.
Consider `COCCCn1c(NC(=O)c2cccc(F)c2)nc2cc(C(=O)NCc3cccc(OC)c3)ccc21`, for which, at Adenosine receptor A2a [2], the inhibition constant Ki is 0.21 µM.
For the compound `N#Cc1cccc(C(=O)Nc2nc3cc(C(=O)N4CCCCC4)cnc3n2Cc2ccncc2)c1`, the Ratio in series [1] is 39. Further, at Adenosine receptor A2a [2], the inhibition constant (Ki) was found to be 0.039 µM.
On to `COCCCn1c(NC(=O)c2cccc(C#N)c2)nc2cc(C(=O)N(C)C(C)C)cnc21`, for which the Ki on Adenosine receptor A2a [4] stood at 0.012 µM; on Adenosine receptor A2a [2], 0.013 µM.
As to `CC(=O)NCCn1c(NC(=O)c2cccc(C#N)c2)nc2cc(C(=O)N3CCCCC3)cnc21`, the Ratio in [1] was over 46. Further, the inhibitory constant (Ki) at Adenosine receptor A2a [2] worked out at 0.037 µM.
Take `CCCCNC(=O)c1cnc2c(c1)nc(NC(=O)c1cccc(C#N)c1)n2CCCOC`: the remaining at 0.5 h was 73% in series [3] and 95% in series [5]. Also, the Ki on Adenosine receptor A2a [2] was 0.04 µM.
`N#Cc1cccc(C(=O)Nc2nc3cc(C(=O)N4CCCCC4)cnc3n2Cc2cccnc2)c1`: the Ratio in series [1] is 4. In addition, the Ki at Adenosine receptor A2a [2] was 0.233 µM.
For `CCOCCCn1c(NC(=O)c2cccc(C#N)c2)nc2cc(C(=O)N3CCOCC3)cnc21`, in that order: 9 and 1.1 µM.
For the compound `N#Cc1cccc(C(=O)Nc2nc3cc(C(=O)N4CCCCC4)cnc3n2C2CCOCC2)c1`, in series [1], the Ratio is 10. Besides, the inhibition constant Ki on Adenosine receptor A2a [2] came out at 0.179 µM.
`COCCCn1c(NC(=O)c2ccccc2Cl)nc2cc(C(=O)NCc3cccc(OC)c3)ccc21`: the inhibitory constant (Ki) on Adenosine receptor A2a [2] turned out to be 4.71 µM.
Consider `CCN(CC)C(=O)c1ccc2nc(NC(=O)c3cccc(C#N)c3)n(CCCOC)c2c1`, for which the values for the remaining at 0.5 h in series [3] and in [5] were 19% and 36%, respectively. For the same compound, in series [1], the Ratio came to 183. Further, the Ki at Adenosine receptor A2a [4] came to 0.016 µM; at Adenosine receptor A2a [2] it was 0.0031 µM.
`N#Cc1cccc(C(=O)Nc2nc3cc(C(=O)N4CCCCC4)cnc3n2CCCO)c1`: the Ratio in series [1] amounted to 10. The Ki at Adenosine receptor A2a [2] turned out to be 0.051 µM.
With `CC(C)OCCCn1c(NC(=O)c2cccc(C#N)c2)nc2cc(C(=O)N3CCOCC3)cnc21`, the Ki at Adenosine receptor A2a [2] was over 10 µM.
As for `CCCCNC(=O)c1ccc2c(c1)nc(NC(=O)c1cccc(C#N)c1)n2CCCOC`, the remaining at 0.5 h in [3] turned out to be 38%; in [5], 27%. Also, the Ki at Adenosine receptor A2a [2] was found to be 0.048 µM.
Take `CCN(C)C(=O)c1cnc2c(c1)nc(NC(=O)c1cccc(C#N)c1)n2CCCOC`: the Kp at 4 h in series [6] stood at 0.09. Moreover, the concentration at 1 h in series [7] was 4360 ng/mL; in series [11], 480 ng/g. The concentration at 4 h in [8] is 2290 ng/mL; in [9], 210 ng/g. Further, the values for the Ki on Adenosine receptor A2a [4] and at Adenosine receptor A2a [2] were 0.024 µM and 0.025 µM, respectively. For the same compound, the Kp at 1 h in series [10] was found to be 0.11.
Consider `COCCCn1c(NC(=O)c2cccc(C#N)c2)nc2cc(C(=O)N3CCCCC3)cnc21`, for which the remaining at 0.5 h is 36% in series [3] and 90% in [5]. Besides, the inhibition constant (Ki) on Adenosine receptor A2a [2] was 0.0096 µM.
Take `CCN(C)C(=O)c1ccc2nc(NC(=O)c3cccc(C#N)c3)n(CCCOC)c2n1`: the Kp at 4 h in series [6] amounted to 0.19. Also, the concentration at 1 h came out at 4630 ng/mL in [7] and 1050 ng/g in series [11]. Further, the remaining at 0.5 h in [3] and in series [5] was 52% in each case. The concentration at 4 h in series [8] came out at 2380 ng/mL; in series [9], 450 ng/g. In addition, the Ratio in series [1] was determined as 80. For the same compound, the Ki at Adenosine receptor A2a [4] is 0.023 µM; at Adenosine receptor A2a [2], 0.012 µM. For the same compound, the Kp at 1 h in [10] was 0.23.
In the case of `Cn1c(NC(=O)c2cccc(C#N)c2)nc2cc(C(=O)N3CCCCC3)cnc21`, the Ratio in [1] is 22. Further, on Adenosine receptor A2a [2], the inhibition constant Ki is 0.147 µM.
Take `COCCCn1c(NC(=O)c2cccc(C#N)c2)nc2ccc(C(=O)N3CCCCC3)cc21`: the remaining at 0.5 h in series [3] amounted to 12%; in [5] it was 19%. Besides, the Ratio in [1] amounted to 131. For the same compound, the Ki on Adenosine receptor A2a [4] is 0.085 µM; on Adenosine receptor A2a [2], 0.017 µM.
As for `COCCCn1c(NC(=O)c2cccc(C#N)c2)nc2cc(C(=O)N3CCOCC3)cnc21`, in series [1], the Ratio is 61. Further, the Ki on Adenosine receptor A2a [2] worked out at 0.092 µM.
For `N#Cc1cccc(C(=O)Nc2nc3cc(C(=O)N4CCCCC4)cnc3n2Cc2ccc(F)cc2)c1`, in that order: 3 and 2.59 µM.
The like results for `COc1cccc(-n2c(NC(=O)c3cccc(C#N)c3)nc3cc(C(=O)N4CCCCC4)cnc32)c1` were, in that order, 2 and 0.325 µM.
As to `COCCCn1c(NC(=O)c2cccc(Cl)c2)nc2cc(C(=O)NCc3cccc(OC)c3)ccc21`, the Ki on Adenosine receptor A2a [2] worked out at 0.439 µM.
Consider `COCCCn1c(NC(=O)c2cccc(C#N)c2)nc2cc(C(N)=O)cnc21`, for which the inhibition constant (Ki) at Adenosine receptor A2a [2] is 2.43 µM.
